Source: PubChem BioAssay (NCI)
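Briefly, cells in 96-well plates were exposed to five compound concentrations for 48 h, and endpoints were estimated by linear interpolation. Definition used: TGI = concentration required for complete inhibition of growth.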

Legend:
Assay in all cases: NCI-60 cell line screen, 48 h
SK-MEL-2 melanoma = test system: SK-MEL-2 melanoma
HCT-15 colon = test system: HCT-15 colon
U251 CNS = test system: U251 CNS
HCT-116 colon = test system: HCT-116 colon
SN12C renal = test system: SN12C renal
SNB-19 CNS = test system: SNB-19 CNS
DMS 114 small cell lung = test system: DMS 114 small cell lung
UO-31 renal = test system: UO-31 renal
SF-539 CNS = test system: SF-539 CNS
IGROV1 ovarian = test system: IGROV1 ovarian
M14 melanoma = test system: M14 melanoma
OVCAR-3 ovarian = test system: OVCAR-3 ovarian
UACC-62 melanoma = test system: UACC-62 melanoma
COLO 205 colon = test system: COLO 205 colon
XF 498 CNS = test system: XF 498 CNS
CCRF-CEM leukemia = test system: CCRF-CEM leukemia
A498 renal = test system: A498 renal
M19-MEL melanoma = test system: M19-MEL melanoma
MALME-3M melanoma = test system: MALME-3M melanoma
SNB-75 CNS = test system: SNB-75 CNS
HL-60(TB) leukemia = test system: HL-60(TB) leukemia
K-562 leukemia = test system: K-562 leukemia
SW-620 colon = test system: SW-620 colon
NCI-H460 lung = test system: NCI-H460 lung
MOLT-4 leukemia = test system: MOLT-4 leukemia
HCC-2998 colon = test system: HCC-2998 colon
A549 NSCLC = test system: A549 NSCLC
LXFL 529 NSCLC = test system: LXFL 529 NSCLC
OVCAR-8 ovarian = test system: OVCAR-8 ovarian
SF-268 CNS = test system: SF-268 CNS
DMS 273 small cell lung = test system: DMS 273 small cell lung
NCI-H23 lung = test system: NCI-H23 lung
SK-OV-3 ovarian = test system: SK-OV-3 ovarian
HOP-92 NSCLC = test system: HOP-92 NSCLC
SNB-78 CNS = test system: SNB-78 CNS
LOX IMVI melanoma = test system: LOX IMVI melanoma
RXF 393 renal = test system: RXF 393 renal
NCI-H226 lung = test system: NCI-H226 lung
HOP-62 NSCLC = test system: HOP-62 NSCLC
RPMI-8226 leukemia = test system: RPMI-8226 leukemia
ACHN renal = test system: ACHN renal
SK-MEL-28 melanoma = test system: SK-MEL-28 melanoma
UACC-257 melanoma = test system: UACC-257 melanoma
SR leukemia = test system: SR leukemia
SF-295 CNS = test system: SF-295 CNS
786-0 renal = test system: 786-0 renal
EKVX NSCLC = test system: EKVX NSCLC
OVCAR-4 ovarian = test system: OVCAR-4 ovarian
DLD-1 colon = test system: DLD-1 colon
TK-10 renal = test system: TK-10 renal
KM20L2 colon = test system: KM20L2 colon
NCI-H522 lung = test system: NCI-H522 lung
SK-MEL-5 melanoma = test system: SK-MEL-5 melanoma
HT29 colon = test system: HT29 colon
OVCAR-5 ovarian = test system: OVCAR-5 ovarian
CAKI-1 renal = test system: CAKI-1 renal
RXF-631 renal = test system: RXF-631 renal
KM12 colon = test system: KM12 colon

Measured: TGI

O=C(c1ccccc1)C1(Br)S(=O)(=O)OCCOS1(=O)=O
> 100 µM: SK-MEL-2 melanoma | HCT-15 colon | U251 CNS | HCT-116 colon | SN12C renal | SNB-19 CNS | DMS 114 small cell lung | UO-31 renal | SF-539 CNS | IGROV1 ovarian | M14 melanoma | OVCAR-3 ovarian | UACC-62 melanoma | COLO 205 colon | XF 498 CNS | CCRF-CEM leukemia | A498 renal | M19-MEL melanoma | MALME-3M melanoma | SNB-75 CNS | HL-60(TB) leukemia | K-562 leukemia | SW-620 colon | NCI-H460 lung | MOLT-4 leukemia | HCC-2998 colon | A549 NSCLC | LXFL 529 NSCLC | OVCAR-8 ovarian | SF-268 CNS | DMS 273 small cell lung | NCI-H23 lung | SK-OV-3 ovarian | HOP-92 NSCLC | SNB-78 CNS | LOX IMVI melanoma | RXF 393 renal | NCI-H226 lung | HOP-62 NSCLC | RPMI-8226 leukemia | ACHN renal | SK-MEL-28 melanoma | UACC-257 melanoma | SR leukemia | SF-295 CNS | 786-0 renal | EKVX NSCLC | OVCAR-4 ovarian | DLD-1 colon | TK-10 renal | KM20L2 colon | NCI-H522 lung | SK-MEL-5 melanoma | HT29 colon | OVCAR-5 ovarian

O=C(NCCc1ccccc1)C1C(=O)C(=O)N(CCc2ccccc2)C1=O (stereo not drawn)
> 100 µM: CAKI-1 renal | SK-MEL-2 melanoma | HCT-15 colon | U251 CNS | HCT-116 colon | SN12C renal | SNB-19 CNS | UO-31 renal | SF-539 CNS | IGROV1 ovarian | M14 melanoma | OVCAR-3 ovarian | UACC-62 melanoma | RXF-631 renal | XF 498 CNS | CCRF-CEM leukemia | M19-MEL melanoma | MALME-3M melanoma | SNB-75 CNS | HL-60(TB) leukemia | K-562 leukemia | SW-620 colon | MOLT-4 leukemia | A549 NSCLC | LXFL 529 NSCLC | SF-268 CNS | DMS 273 small cell lung | NCI-H23 lung | SK-OV-3 ovarian | HOP-92 NSCLC | SNB-78 CNS | LOX IMVI melanoma | NCI-H226 lung | RPMI-8226 leukemia | ACHN renal | SK-MEL-28 melanoma | UACC-257 melanoma | SR leukemia | SF-295 CNS | 786-0 renal | EKVX NSCLC | DLD-1 colon | KM12 colon | TK-10 renal | KM20L2 colon | NCI-H522 lung | HT29 colon

O=[N+]([O-])c1ccc(-c2ccc(C3=Nn4c(CNc5ccccc5Cl)nnc4SC3)o2)cc1
> 100 µM: CAKI-1 renal | SK-MEL-2 melanoma | HCT-15 colon | U251 CNS | HCT-116 colon | SN12C renal | SNB-19 CNS | UO-31 renal | SF-539 CNS | IGROV1 ovarian | M14 melanoma | OVCAR-3 ovarian | UACC-62 melanoma | COLO 205 colon | XF 498 CNS | M19-MEL melanoma | MALME-3M melanoma | SNB-75 CNS | HL-60(TB) leukemia | K-562 leukemia | SW-620 colon | NCI-H460 lung | MOLT-4 leukemia | HCC-2998 colon | A549 NSCLC | LXFL 529 NSCLC | OVCAR-8 ovarian | SF-268 CNS | DMS 273 small cell lung | NCI-H23 lung | SK-OV-3 ovarian | HOP-92 NSCLC | SNB-78 CNS | LOX IMVI melanoma | NCI-H226 lung | HOP-62 NSCLC | RPMI-8226 leukemia | ACHN renal | SK-MEL-28 melanoma | UACC-257 melanoma | SR leukemia | SF-295 CNS | 786-0 renal | DLD-1 colon | KM12 colon | TK-10 renal | KM20L2 colon | NCI-H522 lung | HT29 colon | OVCAR-5 ovarian

CC(=O)OC1COC(N2CCc3cc([N+](=O)[O-])ccc32)C(OC(C)=O)C1OC(C)=O (stereo not drawn)
> 100 µM: CAKI-1 renal | SK-MEL-2 melanoma | HCT-15 colon | U251 CNS | SNB-19 CNS | DMS 114 small cell lung | UO-31 renal | SF-539 CNS | IGROV1 ovarian | M14 melanoma | OVCAR-3 ovarian | UACC-62 melanoma | COLO 205 colon | XF 498 CNS | CCRF-CEM leukemia | A498 renal | M19-MEL melanoma | SNB-75 CNS | K-562 leukemia | SW-620 colon | NCI-H460 lung | MOLT-4 leukemia | A549 NSCLC | LXFL 529 NSCLC | OVCAR-8 ovarian | SF-268 CNS | DMS 273 small cell lung | NCI-H23 lung | SK-OV-3 ovarian | HOP-92 NSCLC | SNB-78 CNS | LOX IMVI melanoma | RXF 393 renal | NCI-H226 lung | HOP-62 NSCLC | RPMI-8226 leukemia | ACHN renal | SK-MEL-28 melanoma | UACC-257 melanoma | SR leukemia | SF-295 CNS | 786-0 renal | EKVX NSCLC | OVCAR-4 ovarian | DLD-1 colon | KM12 colon | TK-10 renal | KM20L2 colon | NCI-H522 lung | SK-MEL-5 melanoma | HT29 colon
